Measurements taken from patent US20250275995A1, “NICOTINAMIDE RIBOSIDE DOSAGE REGIMEN FOR TREATING PARKINSON'S DISEASE” (VESTLANDETS INNOVASJONSSELSKAP AS (VIS), priority 2022, published 2025).

Test system: Parkinson's Disease (PD)
Assay: NADPARK: clinical severity by MDS-UPDRS
Format: in vivo, human
Procedure: The present inventors completed a phase I randomized, double blinded trial, aiming to assess the tolerability, cerebral bioavailability and molecular effects of NR therapy in PD. A total of 30 individuals with newly diagnosed, drug-naïve PD were randomized to NR 500 mg×2/day or placebo for 30 days (Cell Metab. 2022 Mar. 1; 34(3):396-407.e6).
NR is associated with clinical improvement of PD. NR at 1000 mg daily was associated with a significant decrease in the total MDS-UPDRS (I-III) score between visits (mean decrease: 2.33±2.35; paired t-test: p=0.017).

Compound: NC(=O)c1ccc[n+]([C@@H]2O[C@H](CO)[C@@H](O)[C@H]2O)c1 [NR, nicotinamide riboside]
- mean decrease in total MDS-UPDRS (I-III) score between visits (NR 1000 mg daily, as stated in first sentence): 2.33±2.35
- change in MDS-UPDRS (total or subsections I-III) (NR 1000 mg daily, whole NR group): No significant change
- mean decrease in MDS-UPDRS (nine individuals showing >10% increase in cerebral NAD levels): 2.33±2.35
- mean decrease in MDS-UPDRS (subgroup of ten NR-recipients with increased cerebral NAD levels): 1.9±2.78
